The test system of one assay is HIV. Nature of the assay: Anti-HIV evaluation by MTT-tetrazolium method (inhibition of CPE in MT-2 / CEM-SS cells). It is filed as cell-based. To be noted: Human immunodeficiency virus 1, CEM-SS; read-out: Antiviral Activities (EC50) HIV. As for the experimental part: This example illustrates the anti-HIV activity of various coumarin and chromene compounds which were evaluated using the published MTT-tetrazolium methods^8. Retroviral agents AZT and DDC were used as controls for comparison purposes.
The cells used for screening were the MT-2 and the human T4-lymphoblastoid cell line, CEM-SS, and were grown in RPMI 1640 medium supplemented with 10% fetal (v/v) heat-inactivated fetal calf serum and also containing 100 units/mL penicillin, 100 μg/mL streptomycin, 25 mM HEPES and 20 μg/mL gentamicin. The medium used for dilution of drugs and maintenance of cultures during the assay was the same as above. The HTLV-IIIB and HTLV-RF were propagated in CEM-SS. The appropriate amounts of the pure compounds for anti-HIV evaluations were dissolved in DMSO, then diluted in medium to the desired initial concentration. The concentrations (M medium) employed were […]; 0.001 μM; 0.0032 μM; 0.01 μM; 0.032 μM; 0.1 μM; 0.32 μM; 1 μM; 3.2 μM; 10 μM; 32 μM; and 100 μM. Each dilution was added to plates in the amount of 100 μL/well. Drugs were tested in triplicate wells per dilution with infected cells while in duplicate wells per dilution with uninfected cells for evaluation of cytotoxicity. On day 6 (CEM-SS cells) and day 7 (MT-2 cells) post-infection, the viable cells were measured with a tetrazolium salt, MTT (5 mg/mL), added to the test plates. A solution of 20% SDS in 0.001 N HCl is used to dissolve the MTT formazan produced. The optical density value was a function of the amount of formazan produced which was proportional to the number of viable cells. The percent inhibition of CPE per drug concentration was measured as a test over control and expressed in percent (T/C %).
On the technique in general: Tetrazolium dyes change colour on reduction, which living cells bring about.

Another assay deals with EBV. Nature of the assay: EBV assay: superinfection of Raji or Daudi cells with P3HR-1, immunofluorescence for EA and VCA. In kind it is cell-based, Epstein-Barr Virus (P3HR-1). Particulars: human gammaherpesvirus 4; read-out: Antiviral Activities (EC50) EBV. An excerpt: There are two prototypes of infectious EBV. One is exemplified by the virus derived from supernatant fluids of the P3HR-1cell line. This cell line produces nontransforming virus that causes the production of early antigen (EA) after primary infection or superinfection of B cell lines. The other prototype is exemplified by the B-95-8 virus. This virus immortalized cord blood lymphocytes and induced tumors in marmosets. […] The virus used in our assays is P3HR-1.
Ramos is an exceptional B cell line derived from Burkitt's lymphoma tumor but containing no detectable EBV genome copies and is EBNA negative. Ramos/AW was obtained by in vitro infection of Ramos with the P3HR-1 virus and contains one resident EBV genome copy/cell. Raji is a Burkitt's lymphoma cell line containing 60 EBV genomes/cell, and will be the primary cell used for screening antiviral activity against EBV EA expression. Daudi is a low level producer that contains 152 EBV genome copies/cell. It spontaneously expresses EBV EA in 0.25%-0.5% of the cells. It will be used in follow-up studies to confirm activity. These cell lines respond to superinfection by EBV by expressing EA(D), EA(R), and VCA. All cell lines are maintained in RPMI-1640 medium supplemented by 10% FCS, L-glutamine and 100 μg/mL gentamicin. The cultures are fed twice weekly and the cell concentration adjusted to 3×10^5/mL. The cells are kept at 37° C. in a humidified atmosphere with 5% CO2.
Cells are infected with the P3HR-1 strain of EBV and the drugs to be tested are added after adsorption (45 minutes at 37° C.) and washing of the cell cultures. The cultures are incubated for two days in complete medium to allow viral gene expression. Following the 48 hr incubation period, the number of cells of each sample are counted and smears made. Monoclonal antibodies to the different EA components and VCA are then added to the cells incubated and washed. This is followed by a fluorescein conjugated rabbit anti-mouse Ig antibody; and the number of fluorescence positive cells in the smears are counted. The total number of cells in the cultures positive for EA or VCA are then calculated and compared.

The next assay concerns HBV. As to the kind of experiment: HBV replication in cultures of 2.2.15 cells (HBV DNA blot hybridization). In kind it is cell-based. Particulars: Hepatitis B virus; read-out: Antiviral Activities (EC50) HBV. As for the experimental part: Test compounds are then added daily for a continuous 9 day period. Culture medium (changed daily during the treatment period) is collected and stored for analysis of extracellular (virion) HBV DNA after 0, 3, 6, and 9 days of treatment. Treated cells are lysed 24 hours following day 9 of treatment for the analysis of intracellular HBV genomic forms. HBV DVA is then analyzed in a quantitative and qualitative manner for overall levels of HBV DNA (both extracellular and intracellular DNA) and the relative rate of HBV replication (intracellular DNA).
Both intracellular and extracellular HBV DNA are analyzed in order to (i) allow for verification of compound efficacy and (ii) provide possible data on the target site in the HBV replication pathway for the compound from examination of the pattern of viral replicative forms. The culture medium is changed daily during the treatment period to (i) prevent the buildup of potentially toxic metabolites derived from test compounds and (ii) provide an analysis of HBV virion production during discrete 24-hour intervals which enables a quantitative comparison of any effect on virion production.
The analysis of HBV DNA is performed using blot hybridization techniques (Southern and slot blot) and [^32P]-labeled HBV-specific probes. HBV DNA levels are measured by comparison to known amounts of HBV DNA standards applied to every nitrocellulose membrane (gel or slot blot). An AMBIS beta scanner, which measures the radioactive decay of the hybridized probes directly from the nitrocellulose membranes, is used for the quantitative analysis. Standard curves, generated by multiple analyses, are used to correlate CPM measurements made by the beta scanner with relative levels of target HBV DNA. The levels of HBV virion DNA released into the culture medium are analyzed by a slot blot hybridization procedure. HBV DNA levels are then compared to those at Day 0 to determine the effect of drug treatment.
The levels of RI and episomal monomers are used as an indicator of the relative level of HBV replication. Integrated HBV DNA is used to normalize the relative amounts of DNA in each lane because the levels of this class of HBV DNA would be expected to remain constant on a per cell basis. […] Inhibition of HBV DNA replication is indicated by the loss of RI without changes in the level of integrated HBV DNA.

For another assay, the system named is Measles Virus. Nature of the assay: Measles virus antiviral assay (CPE inhibition, neutral red uptake, virus yield). It is filed as cell-based, Measles virus strain CC. Particulars: Measles morbillivirus.
Assay [1] concerns Respiratory Syncytial Virus. As to the kind of experiment: Respiratory syncytial virus antiviral assay (CPE inhibition, neutral red uptake). It is filed as cell-based, Respiratory syncytial virus strain Utah 89. To be noted: human respiratory syncytial virus.
A further assay concerns Rhinovirus. Nature of the assay: Rhinovirus antiviral assay (CPE inhibition, neutral red uptake, virus yield). It is filed as cell-based. Particulars: Enterovirus.
The next assay has as its system VZV. Nature of the assay: VZV plaque reduction assay in human foreskin fibroblast cells. In kind it is cell-based, Varicella Zoster Virus (Ellen strain). Particulars: Human alphaherpesvirus 3, Fibroblast; read-out: Antiviral Activities (EC50) VZV. The protocol: [table] Two days prior to use, HFF cells are plated into six-well plates and incubated at 37° C. with 5% CO2 and 90% humidity. On the date of assay, the drug is made up at twice the desired concentration in 2×MEM and then serially diluted 1:5 in 2×MEM using six concentrations of drug. […] The media is then aspirated from the wells and 0.2 mL of virus is added to each well in duplicate with 0.2 mL of media being added to drug toxicity wells. The plates are then incubated for one hour with shaking every fifteen minutes. […] The drug agarose mixture is applied to each well in 2 mL volume and the plates then incubated for three days, after which the cells were stained with a 1.5% solution of neutral red. At the end of 4-6 hr incubation period, the stain is aspirated, and plaques counted using a stereomicroscope at 10× magnification. The procedure is essentially the same as for the HSV plaque assay described above with two exceptions: 1. After addition of the drug, the plates are incubated for ten days. 2.
(In general: In a plaque reduction assay, fewer plaques than in the control indicate reduced infectivity or spread.)

The mark [2] stands for this setting: CPE inhibition, read-out: Antiviral Activities (EC50) Measles (CPE).
Where [3] appears, read: neutral red (NR) dye uptake, read-out: Antiviral Activities (EC50) Measles (NR).
Where [4] appears, read: readout not stated, read-out: Antiviral Activities (EC50) Rhinovirus.
Setting [5] is: CPE inhibition, read-out: Antiviral Activities (EC50) Respiratory Syncitial (CPE).
Where [6] appears, read: neutral red (NR) dye uptake, read-out: Antiviral Activities (EC50) Respiratory Syncitial (NR).
Where [7] appears, read: CPE inhibition, read-out: Antiviral Activities (EC50) Rhinovirus (CPE).
The mark [8] stands for this setting: neutral red (NR) dye uptake, read-out: Antiviral Activities (EC50) Rhinovirus (NR).

Results on five molecules are retold here after US20030176494A1, “Novel coumarin and chromene compounds and methods of preparation and use thereof for treating or preventing viral infections” (priority 2001, published 2003).

SMILES strings stand for the structures. Converted amounts (≈) assume the structure as drawn. Read-outs that look alike come from different tables or passages of the source.

As usually defined, the EC50 is the concentration needed to bring the measured effect to its halfway point. Turning to `CCCc1cc(=O)oc2cc(OCC(C)(C)C(=O)OC)c3c(c12)OC(C)(C)C=C3`, the EC50 with HIV was 2 µg/mL (≈ 4.99 µM); in the assay with EBV, 0.08 µg/mL (≈ 0.2 µM); with HBV, greater than 4 µg/mL; with Measles Virus (setting [2]), 40 µg/mL (≈ 99.9 µM); in the assay with Measles Virus (setting [3]), 30 µg/mL (≈ 74.9 µM); in assay [1] (readout not stated, read-out: Antiviral Activities (EC50) Respiratory Syncitial) it was greater than 100 µg/mL. Also, the EC50 was 25 µg/mL (≈ 62.4 µM) in the assay on Rhinovirus (setting [4]) and greater than 20 µg/mL in the assay with VZV.

For `CCCc1cc(=O)oc2c(C(=O)CC)c(O)c(C(=O)CC)c(O)c12`, the EC50 in the assay with HIV was greater than 2 µg/mL; in the assay on EBV it was 1.2 µg/mL (≈ 3.61 µM); in the assay on HBV it was greater than 3 µg/mL; in the assay with Measles Virus (setting [2]) it was greater than 100 µg/mL; with Measles Virus (setting [3]), greater than 100 µg/mL; in assay [1] (setting [5]), 20 µg/mL (≈ 60.2 µM). Moreover, the EC50 in assay [1] (setting [6]) was 10 µg/mL (≈ 30.1 µM); in the assay with Rhinovirus (setting [4]) it was 0.39 µg/mL (≈ 1.17 µM); in the assay with VZV it was greater than 20 µg/mL.

Regarding `CCC/C(=C/C(=O)OC)c1c(O)c2c(c3c1OC(C)(C)[C@H](O)[C@H]3O)O[C@H](C)[C@@H](C)[C@@H]2O`, the EC50 with HIV was greater than 2 µg/mL; with EBV, greater than 50 µg/mL; in the assay with HBV it was greater than 4 µg/mL; in the assay with Measles Virus (setting [2]), 10 µg/mL (≈ 22.9 µM); in the assay on Measles Virus (setting [3]) it was 20 µg/mL (≈ 45.8 µM); in assay [1] (setting [5]), 100 µg/mL (≈ 229 µM). For the same molecule, the 50% effective concentration (EC50) in assay [1] (setting [6]) was greater than 100 µg/mL; in the assay on Rhinovirus (setting [7]) it was 20 µg/mL (≈ 45.8 µM); with Rhinovirus (setting [8]) it was 5 µg/mL (≈ 11.5 µM); in the assay with VZV, greater than 20 µg/mL.

As to `CCCc1cc(=O)oc2c3c(c4c(c12)OC(C)(C)[C@H](O)[C@H]4O)O[C@H](C)[C@@H](C)[C@@H]3O`, the EC50 with HIV was greater than 2.5 µg/mL; in the assay on EBV it was greater than 50 µg/mL; in the assay on HBV, greater than 4 µg/mL; in the assay with Measles Virus (setting [2]) it was 10 µg/mL (≈ 24.7 µM); in the assay with Measles Virus (setting [3]) it was 100 µg/mL (≈ 247 µM); in assay [1] (setting [5]), greater than 100 µg/mL. Further, the EC50 in assay [1] (setting [6]) was 100 µg/mL (≈ 247 µM); in the assay on Rhinovirus (setting [7]) it was 20 µg/mL (≈ 49.4 µM); in the assay on Rhinovirus (setting [8]), 50 µg/mL (≈ 124 µM); in the assay on VZV, greater than 100 µg/mL.

Consider `CCCc1cc(=O)oc2c3c(c4c(c12)OC(C)(C)C(O)C4O)O[C@H](C)[C@@H](C)[C@@H]3O` (some centres unmarked), for which the EC50 in the assay on HIV was greater than 8 µg/mL; in the assay on EBV, 9.5 µg/mL (≈ 23.5 µM); in the assay on HBV, greater than 4 µg/mL; with Measles Virus (setting [2]), 10 µg/mL (≈ 24.7 µM); in the assay with Measles Virus (setting [3]), 10 µg/mL (≈ 24.7 µM); in assay [1] (setting [5]) it was greater than 100 µg/mL. For the same molecule, the EC50 in assay [1] (setting [6]) was greater than 100 µg/mL; in the assay on Rhinovirus (setting [7]), 10 µg/mL (≈ 24.7 µM); in the assay on Rhinovirus (setting [8]) it was 10 µg/mL (≈ 24.7 µM); in the assay with VZV, greater than 20 µg/mL.
